The values that follow come from article PMC4963475, “Two functionally distinct kinetochore pools of BubR1 ensure accurate chromosome segregation” (Nature Communications, 2016).

Non-standard residues stand in square brackets, D forms with d. Residues, ends and D or L forms follow the SMILES beside them. pT = C[C@@H](OP(=O)(O)O)[C@H](N)C(=O)O; Nle = CCCC[C@H](N)C(=O)O

Test [1] addresses T1, BubR1/Bub3 (Homo sapiens, UniProt O43684+O60566).
T1 construct: made in house; host or cells: HEK293 cells (transient co-transfection)
Kind of test: MicroScale Thermophoresis (MST) affinity of MELT peptides for BubR1/Bub3. Type of test: binding. The conditions noted are these: for Binding of BubR1/Bub3 to phosphorylated MELT peptide, in words: 50 mM NaCl.
Procedure: To determine the affinity of the complexes to MELTp repeats, we used MicroScale Thermophoresis (MST). Purified BubR1/Bub3 and Bub1(1–553)/Bub3 complexes were fluorescently labelled with maleimide chemistry for these measurements and tested for their ability to bind phosphorylated MELT12, MELT16 and MELT18 peptides (Fig. 2e–g; Supplementary Fig. 2). […] We conducted the affinity measurements at 50 mM NaCl as this produced the best quality data for the Bub1(1–553)/Bub3 complex.
MST experiments were performed on a NanoTemper Monolith NT.115 instrument with blue/red channels. Both complexes, BubR1/Bub3 and Bub1(1–553)/Bub3, were labelled using the Monolith NT Protein Labeling kit RED-MALEIMIDE (NanoTemper Technologies GmbH) according to the supplied protocol. The labelling efficiency was ∼90% and 75%, respectively, and it was estimated by independent measurements of the protein concentration combining spectroscopic measurements and a NT-647 red dye calibration curve in the corresponding MST interaction buffer. Samples were prepared in MST buffer (50 mM HEPES (pH 7.8), 200 mM NaCl, 0.5 mM TCEP, 0.05% Tween 20 or 50 mM Tris (pH 7.8), 50 mM NaCl, 0.5 mM TCEP and 0.05% Tween 20), loaded into premium coated capillaries and measurements were performed at 40% MST power. Laser off/on times were 5 and 30 s, respectively. The fluorescently labelled BubR1/Bub3 and Bub1(1–553)/Bub3 were used at concentrations of 25 and 12.5 nM, respectively, at 40% light-emitting diode power for all peptides except for the double-phosphorylated MELT12 peptide in MST buffer 50 mM Tris (pH 7.8), 50 mM NaCl, 0.5 mM TCEP and 0.05% Tween 20 that were performed at 4 nM concentration of the labelled proteins and 80% light-emitting diode power. […] The fraction of bound protein was derived from the averaged (1 s averaged) normalized fluorescence signals at t=8 s of the labelled complexes at different ligand concentrations. […] The number of independent repeats was three for all measurements and error bars show the s.d. between these independent repeats.

Test [2] has as its target T2, Bub1(1–553)/Bub3 (Homo sapiens, UniProt O43683+O43684).
T2 construct: 15 μg 3 × FLAG–Bub1(1–553)-expressing plasmid; made in house; host or cells: HEK293 cells (transient co-transfection)
Kind of test: MicroScale Thermophoresis (MST) affinity of MELT peptides for Bub1(1–553)/Bub3. Type of test: binding. The conditions noted are these: for Binding of Bub1(1–553)/Bub3 to phosphorylated MELT peptide, in words: 50 mM NaCl. The source says: We next wanted to quantitatively compare the ability of BubR1/Bub3 and Bub1/Bub3 to bind MELTp repeats. For this, we purified a FLAG–Bub1(1–553)/Bub3 complex in parallel with FLAG–BubR1/Bub3 (we could not obtain sufficient yields of the full-length Bub1/Bub3 complex, but have recently shown that Bub1 1–553 fully supports SAC signalling[29]). To determine the affinity of the complexes to MELTp repeats, we used MicroScale Thermophoresis (MST). Purified BubR1/Bub3 and Bub1(1–553)/Bub3 complexes were fluorescently labelled with maleimide chemistry for these measurements and tested for their ability to bind phosphorylated MELT12, MELT16 and MELT18 peptides (Fig. 2e–g; Supplementary Fig. 2). The binding of BubR1/Bub3 to MELT12 was strongly dependent on phosphorylation and the measured affinity was sensitive to the salt concentration in the buffer as expected for an interaction depending on electrostatic interactions with the phosphorylated threonine[26] (Fig. 2e–g; Supplementary Fig. 2C). We conducted the affinity measurements at 50 mM NaCl as this produced the best quality data for the Bub1(1–553)/Bub3 complex.
Ten 15-cm dishes were each seeded with 6 × 10^6 HEK293 cells and the next day each transfected with 15 μg 3 × FLAG–BubR1 or 15 μg 3 × FLAG–Bub1(1–553)-expressing plasmid and 15 μg untagged Bub3-expressing plasmid using lipofectamine 2000 (Invitrogen). Forty-eight hours after transfection, the cells were collected by trypsination and cells washed in cold PBS with 1 mM phenylmethyl sulphonyl fluoride. The cells were resuspended in 5 ml buffer A (350 mM NaCl, 50 mM Tris·HCl (pH 8.0), 0.05% NP-40 and protease inhibitor cocktail (Roche)) and lysed using a nitrogen cavitation bomb. Lysate was clarified by centrifugation and then incubated with 300 μl FLAG-affinity resin (Sigma-Aldrich) for 90 min at 4 °C. The FLAG resin was washed with 20 ml buffer A and proteins eluted with three times 300 μl buffer A containing […] 3 × FLAG peptide (Sigma). The eluates were pooled and concentrated to 500 μl and loaded on a Superdex 200 10/300 GL column equilibrated with buffer B (150 mM NaCl, 25 mM HEPES·KOH (pH 7.8), 5% glycerol and 0.5 mM TCEP) and peak fractions eluting at ∼500 kDa pooled and concentrated using a vivaspin-4 concentration device. Proteins were stored at −80 °C.
MST experiments were performed on a NanoTemper Monolith NT.115 instrument with blue/red channels. […] The fluorescently labelled protein complexes were mixed with equivalent volumes (10 μl) of a twofold serial dilution of the different peptides starting at concentrations between 10 and 20 times the calculated KD. The fraction of bound protein was derived from the averaged (1 s averaged) normalized fluorescence signals at t=8 s of the labelled complexes at different ligand concentrations. […]
(In MST a laser heats a spot of the sample, and binding alters the fluorescence response.)

The subject of test [3] is HeLa cells. As to conditions: Bub1 RNAi 48 h, nocodazole 2 h, reversine 0.5 μM, 25–35% without reversine.
Procedure: (a) Outline of the synchronization protocol used in this study. Left, RNAi and rescue protocol; right, Bub1 CRISPR/Cas9 knockout protocol. (b) HeLa cells were treated with a control RNAi oligo (luciferase) or an RNAi oligo targeting Bub1 for 48 h and arrested in mitosis using nocodazole for 2 h. Cells were fixed and stained with 4,6-diamidino-2-phenylindole (DAPI), CREST (centromere marker) and Bub1 antibodies. (c,e,g,i) The kinetochore levels of Bub1, BubR1 and KNL1 were determined in the indicated conditions and normalized to CREST. An unpaired t-test was used for statistical comparison of the different samples in e. […] (f) HeLa cells were transfected with Cas9 protein with guide RNA against Bub1 gene for 96 h and treated with nocodazole for 2 h. […] At least 160 individual kinetochores from eight cells were measured in each condition. […]
Cells growing on coverslips were washed once with PBS and fixed with 4% paraformaldehyde in PHEM buffer (60 mM PIPES, 25 mM HEPES, pH 6.9, 10 mM EGTA and 4 mM MgSO4) for 20 min at room temperature. […] Z-stacks 200 nm apart was recorded on a Deltavision Elite microscope (GE Healthcare), using a × 100 oil objective followed by deconvolution using Softworx before quantification. Protein intensity on kinetochores was quantified by drawing a circle closely along the rod-like CREST staining covering the interested outer kinetochore protein staining on both ends. […]

T1 sequence (O60566 whole entry): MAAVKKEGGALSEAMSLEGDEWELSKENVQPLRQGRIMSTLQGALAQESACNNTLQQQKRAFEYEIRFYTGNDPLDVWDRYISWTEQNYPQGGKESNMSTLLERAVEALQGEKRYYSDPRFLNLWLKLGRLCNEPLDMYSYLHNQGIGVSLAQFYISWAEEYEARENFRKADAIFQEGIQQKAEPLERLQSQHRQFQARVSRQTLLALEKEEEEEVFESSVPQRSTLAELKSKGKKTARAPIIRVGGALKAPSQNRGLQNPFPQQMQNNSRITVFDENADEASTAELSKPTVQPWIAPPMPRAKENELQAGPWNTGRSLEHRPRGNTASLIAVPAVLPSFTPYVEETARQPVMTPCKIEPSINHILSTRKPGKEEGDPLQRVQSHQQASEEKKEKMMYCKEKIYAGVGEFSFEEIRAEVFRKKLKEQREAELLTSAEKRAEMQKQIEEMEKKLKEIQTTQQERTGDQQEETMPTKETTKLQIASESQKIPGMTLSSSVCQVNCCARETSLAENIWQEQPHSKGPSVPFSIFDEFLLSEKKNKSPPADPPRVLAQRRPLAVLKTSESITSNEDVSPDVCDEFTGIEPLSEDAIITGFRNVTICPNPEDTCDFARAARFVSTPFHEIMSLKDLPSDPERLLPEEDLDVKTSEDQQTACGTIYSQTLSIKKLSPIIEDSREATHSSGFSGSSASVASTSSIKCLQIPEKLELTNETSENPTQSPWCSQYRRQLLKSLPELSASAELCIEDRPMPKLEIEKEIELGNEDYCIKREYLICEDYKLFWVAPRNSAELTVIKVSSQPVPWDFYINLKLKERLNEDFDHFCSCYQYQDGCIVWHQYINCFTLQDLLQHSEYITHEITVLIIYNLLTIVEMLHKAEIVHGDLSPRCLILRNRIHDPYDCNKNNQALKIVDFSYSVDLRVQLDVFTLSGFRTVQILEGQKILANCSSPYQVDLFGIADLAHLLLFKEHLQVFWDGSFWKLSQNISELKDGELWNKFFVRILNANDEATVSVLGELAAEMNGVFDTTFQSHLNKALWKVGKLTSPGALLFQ
T1 sequence (O43684 whole entry): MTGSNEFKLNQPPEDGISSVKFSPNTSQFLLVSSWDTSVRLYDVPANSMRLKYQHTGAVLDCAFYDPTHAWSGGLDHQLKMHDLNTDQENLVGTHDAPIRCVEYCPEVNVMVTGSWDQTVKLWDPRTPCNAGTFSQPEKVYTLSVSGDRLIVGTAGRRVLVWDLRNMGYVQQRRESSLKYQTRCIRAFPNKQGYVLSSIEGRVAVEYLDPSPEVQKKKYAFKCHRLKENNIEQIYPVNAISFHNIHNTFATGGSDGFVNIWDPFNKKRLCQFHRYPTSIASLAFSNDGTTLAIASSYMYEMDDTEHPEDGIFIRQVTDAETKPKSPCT
T2 sequence (O43683 1-553 limits assumed): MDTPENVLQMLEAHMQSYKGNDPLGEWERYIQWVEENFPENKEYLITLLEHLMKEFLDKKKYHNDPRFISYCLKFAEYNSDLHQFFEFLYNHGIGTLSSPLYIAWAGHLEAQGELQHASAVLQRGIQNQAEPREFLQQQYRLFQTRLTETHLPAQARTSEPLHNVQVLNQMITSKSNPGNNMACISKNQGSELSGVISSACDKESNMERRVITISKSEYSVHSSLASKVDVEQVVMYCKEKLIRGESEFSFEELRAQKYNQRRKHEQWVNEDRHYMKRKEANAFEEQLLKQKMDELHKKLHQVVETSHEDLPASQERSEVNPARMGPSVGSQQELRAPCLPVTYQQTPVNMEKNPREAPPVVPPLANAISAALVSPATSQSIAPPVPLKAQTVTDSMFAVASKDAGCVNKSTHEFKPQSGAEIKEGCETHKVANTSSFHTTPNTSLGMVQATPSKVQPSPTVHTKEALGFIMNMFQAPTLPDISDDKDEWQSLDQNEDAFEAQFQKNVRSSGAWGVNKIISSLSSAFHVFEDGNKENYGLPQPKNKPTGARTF
T2 sequence (O43684 whole entry): as the sequence (O43684 whole entry) above

Regarding `CCCC[C@H](NC(=O)[C@H](CC(=O)O)NC(=O)[C@H](CC(N)=O)NC(=O)[C@H](CCCCN)NC(=O)[C@H](CC(=O)O)NC(=O)[C@H](CC(=O)O)NC(=O)[C@H](CCC(=O)O)NC(=O)COCCOCCNC(=O)[C@H](CS)NC(=O)COCCOCCNC(=O)CCCC[C@@H]1SC[C@@H]2NC(=O)N[C@@H]21)C(=O)N[C@@H](CC(=O)O)C(=O)N[C@H](C(=O)N[C@H](C(=O)N[C@@H](CCCCN)C(=O)N[C@@H](CO)C(=O)N[C@@H](Cc1ccc(O)cc1)C(=O)N[C@H](C(=O)N[C@H](C(=O)N[C@@H](CCC(=O)O)C(=O)N[C@H](C(=O)N[C@@H](CC(N)=O)C(N)=O)[C@@H](C)CC)[C@@H](C)CC)[C@@H](C)O)[C@@H](C)OP(=O)(O)O)[C@@H](C)CC` [MELT12p], in test [1], the “Binding of BubR1/Bub3 to phosphorylated MELT peptide, in words” value (shortened to “Binding of BubR1/Bub3”) was “bound”. In addition, the “Binding of Bub1(1–553)/Bub3 to phosphorylated MELT peptide, in words” value (“Binding of Bub1(1–553)/Bub3” for short) in test [2] is given as “bound”.

`CCCC[C@H](NC(=O)[C@H](CC(=O)O)NC(=O)[C@H](CC(N)=O)NC(=O)[C@H](CCCCN)NC(=O)[C@H](Cc1c[nH]cn1)NC(=O)[C@H](CC(N)=O)NC(=O)[C@@H](N)CCC(=O)O)C(=O)N[C@@H](CC(=O)O)C(=O)N[C@H](C(=O)N[C@H](C(=O)N[C@@H](CCC(N)=O)C(=O)N[C@@H](CO)C(=O)N[C@@H](CS)C(=O)N[C@@H](CCCC)C(=O)N[C@H](C(=O)N[C@@H](CCC(=O)O)C(=O)N[C@H](C(=O)N[C@@H](CC(=O)O)C(=O)N[C@@H](Cc1ccc(O)cc1)C(N)=O)[C@@H](C)CC)C(C)C)[C@@H](C)OP(=O)(O)O)[C@@H](C)CC` [MELT16p] (H-ENHKND[Nle]DI[pT]QSC[Nle]VEIDY-NH2; N-terminus assumed): the “Binding of BubR1/Bub3” value in test [1] is listed as “bound”. For the same compound, in test [2], the “Binding of Bub1(1–553)/Bub3” value is reported as “bound”.

Regarding `c1nc2nc(Nc3ccc(N4CCOCC4)cc3)nc(NC3CCCCC3)c2[nH]1` [reversine], the “BubR1 kinetochore levels remaining (normalized to CREST)” value in test [3] is given as about 10%.

For “TDNYSDLEV-Tp-DSHTVFID-amide [MELT18p, single-phosphorylated MELT18 peptide from KNL1]”, the “Binding of BubR1/Bub3” value in test [1] is “no binding was detected”. In addition, the “BubR1/Bub3 KD” value in test [1] (50 mM Tris pH 7.8, 50 mM NaCl, 0.5 mM TCEP, 0.05% Tween 20, labelled BubR1/Bub3 25 nM (4 nM for double-phosphorylated MELT12), three independent repeats) is listed as “No binding”. In addition, the “Binding of Bub1(1–553)/Bub3” value in test [2] was “no binding was detected”. For the same compound, the “Bub1(1–553)/Bub3 KD” value in test [2] (50 mM Tris pH 7.8, 50 mM NaCl, 0.5 mM TCEP, 0.05% Tween 20, labelled Bub1(1–553)/Bub3 12.5 nM (4 nM for double-phosphorylated MELT12), three independent repeats) was “No binding”.
